What was measured:
[1] = system: recombinant human anti-SARS-CoV antibody 03-018; format: binding; set-up: Binding of antibody 03-018 to linear peptides of the N protein of SARS-CoV Urbani / Binding of antibody 03-018 to looped/cyclic peptides of the N protein of SARS-CoV Urbani: unit not given here
[2] = system: rabbit serum obtained by immunizing a rabbit with the SARS-CoV strain Frankfurt 1; format: binding; set-up: Binding of a rabbit serum to linear peptides / Binding of a rabbit serum to looped peptides / Rabbit serum linear peptides / Rabbit serum looped peptides / Binding of a rabbit serum to linear peptides of protein N of SARS-CoV Urbani (Rabbit serum linear peptides) / Binding of a rabbit serum to looped/cyclic peptides of protein N of SARS-CoV Urbani (Rabbit serum looped peptides): unit not given here
[3] = system: control sera (pooled serum of ten healthy LUMC hospital workers; commercial negative donor pooled serum from the Dutch bloodbank); format: binding, human; set-up: Binding of Control serum LUMC to linear peptides / Binding of Control serum Blood-bank to linear peptides / Binding of Control serum LUMC to looped peptides / Binding of Control Serum Blood-Bank to Looped peptides / Binding of Control serum LUMC to linear peptides of the protein M of SARS-CoV Urbani / Binding of Control serum Blood-bank to linear peptides of the protein M of SARS-CoV Urbani / Binding of Control serum LUMC to looped peptides of the protein M of SARS-CoV Urbani / Binding of Control Serum Blood-Bank to Looped peptides of the protein M of SARS-CoV Urbani: unit not given here
[4] = system: antibodies in sera from SARS patients (sera 1a, 1b, 2, 6, 37, 62, London, SARS-yellow, SARS-green); format: binding, human; set-up: Binding of serum 6 to linear peptides of protein X1 of SARS-CoV Urbani / Binding of serum 37 to linear peptides of protein X1 of SARS-CoV Urbani / Binding of serum 6 to looped/cyclic peptide (PEPSCAN-ELISA) / Binding of serum 37 to looped/cyclic peptide (PEPSCAN-ELISA) / Binding of serum 37 to looped/cyclic peptides of protein X1 of SARS-CoV Urbani / Binding of serum 6 to linear peptides of protein X2 / Binding of serum 37 to linear peptides of protein X2 / Binding of serum 37 to looped/cyclic peptides of protein X2 of SARS-CoV Urbani / Binding of serum 6 to linear peptides of protein M of SARS-CoV Urbani / Binding of serum 37 to linear peptides of protein M of SARS-CoV Urbani / Binding of serum 6 to looped/cyclic peptides of protein M of SARS-CoV Urbani / Binding of serum 37 to looped/cyclic peptides of protein M of SARS-CoV Urbani / Binding of serum 6 to linear peptides of protein X3 of SARS-CoV Urbani / Binding of serum 37 to linear peptides of protein X3 of SARS-CoV Urbani / Binding of serum 37 to looped/cyclic peptides of protein X3 of SARS-CoV Urbani / Binding of serum 6 to linear peptides of protein X4 of SARS-CoV Urbani / Binding of serum 37 to linear peptides of protein X4 of SARS-CoV Urbani / Binding of serum 37 to looped/cyclic peptides of protein X4 of SARS-CoV Urbani / Binding of serum 6 to linear peptides of protein X5 of SARS-CoV Urbani / Binding of serum 37 to linear peptides of protein X5 of SARS-CoV Urbani / Binding of serum 37 to looped/cyclic peptides of protein X5 of SARS-CoV Urbani / Binding of serum 6 to linear peptides of protein N of SARS-CoV Urbani / Binding of serum 37 to linear peptides of protein N of SARS-CoV Urbani / Binding of serum 6 to linear peptide (PEPSCAN-ELISA) / Binding of serum 1a to looped/cyclic peptides of protein N of SARS-CoV Urbani / Binding of serum 1b to looped/cyclic peptides of protein N of SARS-CoV Urbani / Binding of serum 2 to looped/cyclic peptides of protein N of SARS-CoV Urbani / Binding of serum 6 to looped/cyclic peptides of protein N of SARS-CoV Urbani / Binding of serum 37 to looped/cyclic peptides of protein N of SARS-CoV Urbani / Binding of serum 62 to looped/cyclic peptides of protein N of SARS-CoV Urbani / Binding of serum London to looped/cyclic peptides of protein N of SARS-CoV Urbani / Binding of serum SARS-green to looped/cyclic peptides of protein N of SARS-CoV Urbani: unit not given here

| Sequence | Binding of antibody 03-018 to linear peptides of the N protein of SARS-CoV Urbani [1] | Binding of antibody 03-018 to looped/cyclic peptides of the N protein of SARS-CoV Urbani [1] | Binding of a rabbit serum to linear peptides of protein N of SARS-CoV Urbani (Rabbit serum linear peptides) [2] | Binding of a rabbit serum to looped/cyclic peptides of protein N of SARS-CoV Urbani (Rabbit serum looped peptides) [2] | Binding of serum 1a to linear peptides of protein N of SARS-CoV Urbani [4] | Binding of serum 1a to looped/cyclic peptides of protein N of SARS-CoV Urbani [4] | Binding of serum 1b to linear peptides of protein N of SARS-CoV Urbani [4] | Binding of serum 1b to looped/cyclic peptides of protein N of SARS-CoV Urbani [4] | Binding of serum 2 to linear peptides of protein N of SARS-CoV Urbani [4] | Binding of serum 2 to looped/cyclic peptides of protein N of SARS-CoV Urbani [4] | Binding of serum 6 to linear peptides of protein N of SARS-CoV Urbani [4] | Binding of serum 6 to looped/cyclic peptides of protein N of SARS-CoV Urbani [4] | Binding of serum 37 to linear peptides of protein N of SARS-CoV Urbani [4] | Binding of serum 37 to looped/cyclic peptides of protein N of SARS-CoV Urbani [4] | Binding of serum 62 to linear peptides of protein N of SARS-CoV Urbani [4] | Binding of serum 62 to looped/cyclic peptides of protein N of SARS-CoV Urbani [4] | Binding of serum London to linear peptides of protein N of SARS-CoV Urbani [4] | Binding of serum London to looped/cyclic peptides of protein N of SARS-CoV Urbani [4] | Binding of serum SARS-green to linear peptides of protein N of SARS-CoV Urbani [4] | Binding of serum SARS-green to looped/cyclic peptides of protein N of SARS-CoV Urbani [4] | also measured |
| --- | --- | --- | --- | --- | --- | --- | --- | --- | --- | --- | --- | --- | --- | --- | --- | --- | --- | --- | --- | --- | --- |
| EASLPYGANKEGIVW | 0.1 | 0.2 | 0.1 | 0.3 | 0.2 | 0.3 | 0.1 | 0.2 | 0.2 | 0.4 | 0.1 | 0.2 | 0.5 | 0.7 | 0.5 | 0.6 | 0.4 | 0.5 | 0.2 | 0.5 | Binding of Control Serum Blood-Bank to Looped peptides [3]: 0.7; Binding of Control serum Blood-bank to linear peptides [3]: 0.8; Binding of Control serum LUMC to linear peptides [3]: 0.6; Binding of Control serum LUMC to looped peptides [3]: 0.6; Binding of serum SARS-yellow to linear peptides of protein N of SARS-CoV Urbani [4]: 0.6; Binding of serum SARS-yellow to looped/cyclic peptides of protein N of SARS-CoV Urbani [4]: 0.2 |
| RATRRVRGGDGKMKE | 0.1 | 0.2 | 0.2 | 0.2 | 0.2 | 0.2 | 0.1 | 0.1 | 0.4 | 0.2 | 0.2 | 0.1 | 0.8 | 0.5 | 0.7 | 0.2 | 0.5 | 0.2 | 0.3 | 0.0 | Binding of Control Serum Blood-Bank to Looped peptides [3]: 0.4; Binding of Control serum Blood-bank to linear peptides [3]: 0.8; Binding of Control serum LUMC to linear peptides [3]: 0.7; Binding of Control serum LUMC to looped peptides [3]: 0.3; Binding of serum SARS-yellow to linear peptides of protein N of SARS-CoV Urbani [4]: 0.6; Binding of serum SARS-yellow to looped/cyclic peptides of protein N of SARS-CoV Urbani [4]: 0.3 |
| PNNNAATVLQLPQGT | 0.1 | 0.3 | 0.0 | 0.2 | 0.2 | 0.5 | 0.1 | 0.4 | 0.2 | 0.8 | 0.1 | 0.3 | 0.6 | 1.0 | 0.6 | 0.9 | 0.5 | 0.7 | 0.3 | 0.7 | Binding of Control Serum Blood-Bank to Looped peptides [3]: 0.9; Binding of Control serum Blood-bank to linear peptides [3]: 0.6; Binding of Control serum LUMC to linear peptides [3]: 0.6; Binding of Control serum LUMC to looped peptides [3]: 0.8; Binding of serum SARS-yellow to linear peptides of protein N of SARS-CoV Urbani [4]: 0.7; Binding of serum SARS-yellow to looped/cyclic peptides of protein N of SARS-CoV Urbani [4]: 0.5 |
| NVILLNKHIDAYKTF | 0.1 | 0.2 | 0.2 | 0.6 | 0.2 | 0.5 | 0.1 | 0.3 | 0.2 | 0.4 | 0.1 | 0.3 | 0.7 | 0.7 | 0.6 | 0.7 | 0.5 | 0.9 | 0.3 | 0.3 | Control Serum Blood-Bank Looped peptides [3]: 0.8; Control serum Blood-bank linear peptides [3]: 0.7; Control serum LUMC linear peptides [3]: 0.7; Control serum LUMC looped peptides [3]: 0.7; Binding of serum SARS-yellow to linear peptides of protein N of SARS-CoV Urbani [4]: 0.6; Binding of serum SARS-yellow to looped/cyclic peptides of protein N of SARS-CoV Urbani [4]: 0.7 |
